pIC50: −log10 of the molar value.
Experiments:
[1] = biological target: T1, PD-L1 (Homo sapiens, UniProt Q9NZQ7); experiment: Competitive cell-binding experiment against [^68Ga]BMSH; conditions: A549-hPDL1 cells, 60 min
T1 construct: expressed in transfected cells; host or cells: A549 cells stably transduced with hPD-L1 by lentivirus (A549-hPDL1)

[2] = system: A549-hPDL1 and A549 tumors; experiment: Micro-PET imaging, A549-hPDL1 versus A549 tumors; assay type: in vivo, BALB/c nude mice; conditions: 60 min post-injection
Method: For biodistribution and micro-PET imaging studies of [^68Ga]BMSH and [^18F]FDG, male BALB/c nude mice were implanted subcutaneously with 1–5 × 10^6 A549-hPDL1 cells and A549 cells behind right armpit. Mice were imaged or used in biodistribution studies when the tumor xenografts reached 5–10 mm in diameter. Dynamic micro-PET imaging studies were conducted in tumor-bearing nude mice (A549-hPDL1 and A549, n = 3 in each group) using the Madiclab PSA146 PET/CT/FMT instrument (Linyi, China). The images were reconstructed using a three-dimensional ordered-subset expectation maximum (OSEM) algorithm and were converted to the percentage of injected dose per gram of tissue (%ID/g) images. Tumor-bearing mice were intravenously injected with [^68Ga]BMSH (7.4 MBq/mouse) and [^18F]FDG (5.55 MBq/mouse), respectively. For the blocking experiment, the A549-hPDL1 tumor-bearing mice were co-injected with NOTA-BMSH (100 µg/mouse) and [^68Ga]BMSH. For data analysis, the regions of interest (ROIs) were manually drawn over the tumor and major organs on decay-corrected whole-body coronal images using PMOD software (version 4.3, PMOD Technologies Ltd., Zurich, Switzerland).

T1 sequence (Q9NZQ7 19-290): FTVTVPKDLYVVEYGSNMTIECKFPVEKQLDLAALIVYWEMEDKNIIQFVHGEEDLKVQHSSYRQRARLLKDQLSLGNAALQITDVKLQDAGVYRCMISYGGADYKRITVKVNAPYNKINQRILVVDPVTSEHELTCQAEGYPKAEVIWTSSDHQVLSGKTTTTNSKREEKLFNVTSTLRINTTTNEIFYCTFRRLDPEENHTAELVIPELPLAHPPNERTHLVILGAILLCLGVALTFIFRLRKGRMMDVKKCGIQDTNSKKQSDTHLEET

| pIC50 [1] | A549-hPDL1 tumor/A549 tumor uptake ratio [2] | Compound |
| --- | --- | --- |
| 6.35 |  | CC(=O)NC1C(NC(=O)[C@H](CCC(=O)N[C@@H](CCC(=O)O)C(=O)N[C@@H](CC(=O)O)C(=O)NCCOCCOCC(=O)NCCNC(=O)[C@@H](CO)CNc2cc(C)c(OCc3cccc(-c4ccc5c(c4)OCCO5)c3C)cc2OCc2cccc(C#N)c2)NC(=O)COCCOCCNC(=O)CN2CCN(CC(=O)O)CCN(CC(=O)O)CC2)OC(CO)C(O)C1O (some centres unmarked) [NOTA-BMSH] |
|  | 1.08 | [^18F]FDG |

— PMC10610256, “Development and Preclinical Evaluation of [^68Ga]BMSH as a New Potent Positron Emission Tomography Tracer for Imaging Programmed Death-Ligand 1 Expression” (Pharmaceuticals, 2023)
